In one assay the target is T1, Tie2 (Homo sapiens, UniProt Q02763).
T1 construct: purchased Millipore (KinaseProfiler service)
Kind of assay: In vitro kinase activity (Millipore KinaseProfiler): Tie2. Conditions: no head or unit printed. Format: biochemical. On the procedure: (§1) All cells were grown in DMEM+10% FCS. ACHN and ACHN shVHL were a kind gift from George V. Thomas (UCLA). HIF overexpressing clones were described previously. Transfection of RNA oligos were performed with DnarmaFECT Reagent 1 (Dharmcon), according to manufacturer's directions. ON-TARGETplus SMART pools against HIF-1β/ARNT were purchased from Dharmacon. Glut1 was detected with anti-GLUT1 antibody from NeoMarkers/LabVision/Fisher. Pyruvate/lactate levels and hexokinase activity were both measured by fluorometric assay (BioVision and Sigma-Aldrich, respectively). ATP levels were measured by bioluminescence assay (ATP Determination Kit from Molecular Probes/Invitrogen). In vitro kinase activities were performed by Millipore KinaseProfiler. Affi-Gel 10 (BioRad) activated affinity media was coupled to analogs to generate immobilized affinity linkers.
(§2) We next wanted to investigate the differential glucose uptake between RCCs with and without VHL treated with compound 47 that subsequently lead to the selective death of VHL-deficient cells. We first examined the message levels of the two main glucose transporters, GLUT1 and GLUT2 by quantitative real-time PCR. GLUT1 is an inducible, high-affinity glucose transporter, while GLUT2 is the glucose transporter responsible for basal glucose uptake. […] Cells deficient in VHL had very low levels of GLUT2 that could barely be detected (FIG. 3J). […]

A further assay addresses T2, IR (Homo sapiens, UniProt P06213).
T2 construct: purchased Millipore (KinaseProfiler service)
Kind of assay: In vitro kinase activity (Millipore KinaseProfiler): IR. The class given is biochemical. Conditions: no head or unit printed. How it is done:
as §1, §2

A further assay has as its target T3, MSK1 (Homo sapiens, UniProt O75582).
T3 construct: purchased Millipore (KinaseProfiler service)
The assay can be described thus: In vitro kinase activity (Millipore KinaseProfiler): MSK1. The class given is biochemical. The following applies: no head or unit printed. On the procedure: as §1, §2

In a further assay the target is T4, MLK1 (Homo sapiens, UniProt P80192).
T4 construct: purchased Millipore (KinaseProfiler service)
Kind of assay: In vitro kinase activity (Millipore KinaseProfiler): MLK1. Format: biochemical. Conditions: no head or unit printed. On the procedure: as §1, §2

A further assay relates to p53. The assay can be described thus: DNA damage response (Western blot p53, phospho-p53). The class given is cell-based, human. The following applies: RCC4 and RCC4/VHL, 1.25, 2.5 and 5 μM. On the procedure:
(§3) (A) Clonogenic survival of RCC4 and RCC4/VHL treated with […] (5 μM)(*p<0.05). All error bars represent the standard error of the mean. […] RCC4 and RCC4/VHL cells were treated with increasing concentrations of compound 47 (1.25, 2.5 and 5 μM), a negative control (DMSO) and a positive control (4-(pyridin-4-yl)-N-(m-tolyl)thiazol-2-amine). Cells were lysed and probed for LC3, a marker of autophagy, or α-tubulin (loading control). […] RCC4 and RCC4/VHL cells were treated with vehicle, increasing concentrations of compound 47, and camptothecin. Cells were stained with DAPI and nuclear condensation was examined by fluorescence microscopy. (D) RCC4 cells were treated with compound 47 (5 μM) for the indicated time and stained with Annexin V and propidium iodide and subjected to FACS analysis. […] RCC4 and RCC4/VHL cells were subjected to increasing concentrations of compound 47 (1.25, 2.5, and 5 μM), a negative control (DMSO), and a positive control (doxorubicin). Cells were lysed and subjected to Western blot with the indicated antibodies.
(§4) However, RCC cells without VHL undergo a necrotic cell death in response to compound 47 as measured by the ability of the cells to exclude trypan blue, an indicator of cell membrane integrity.
(In western blotting, separated proteins are transferred to a membrane and probed.)

The test system of the next assay is RCC4 and RCC4/VHL cells. Kind of assay: Apoptosis (DAPI nuclear condensation, Annexin V / propidium iodide FACS). Format: cell-based, human. On the procedure:
as §3, §4

The target in the next assay is T5, Flt3 (Homo sapiens, UniProt P36888).
T5 construct: purchased Millipore (KinaseProfiler service)
T5 sequence (P36888 27-993, species assumed): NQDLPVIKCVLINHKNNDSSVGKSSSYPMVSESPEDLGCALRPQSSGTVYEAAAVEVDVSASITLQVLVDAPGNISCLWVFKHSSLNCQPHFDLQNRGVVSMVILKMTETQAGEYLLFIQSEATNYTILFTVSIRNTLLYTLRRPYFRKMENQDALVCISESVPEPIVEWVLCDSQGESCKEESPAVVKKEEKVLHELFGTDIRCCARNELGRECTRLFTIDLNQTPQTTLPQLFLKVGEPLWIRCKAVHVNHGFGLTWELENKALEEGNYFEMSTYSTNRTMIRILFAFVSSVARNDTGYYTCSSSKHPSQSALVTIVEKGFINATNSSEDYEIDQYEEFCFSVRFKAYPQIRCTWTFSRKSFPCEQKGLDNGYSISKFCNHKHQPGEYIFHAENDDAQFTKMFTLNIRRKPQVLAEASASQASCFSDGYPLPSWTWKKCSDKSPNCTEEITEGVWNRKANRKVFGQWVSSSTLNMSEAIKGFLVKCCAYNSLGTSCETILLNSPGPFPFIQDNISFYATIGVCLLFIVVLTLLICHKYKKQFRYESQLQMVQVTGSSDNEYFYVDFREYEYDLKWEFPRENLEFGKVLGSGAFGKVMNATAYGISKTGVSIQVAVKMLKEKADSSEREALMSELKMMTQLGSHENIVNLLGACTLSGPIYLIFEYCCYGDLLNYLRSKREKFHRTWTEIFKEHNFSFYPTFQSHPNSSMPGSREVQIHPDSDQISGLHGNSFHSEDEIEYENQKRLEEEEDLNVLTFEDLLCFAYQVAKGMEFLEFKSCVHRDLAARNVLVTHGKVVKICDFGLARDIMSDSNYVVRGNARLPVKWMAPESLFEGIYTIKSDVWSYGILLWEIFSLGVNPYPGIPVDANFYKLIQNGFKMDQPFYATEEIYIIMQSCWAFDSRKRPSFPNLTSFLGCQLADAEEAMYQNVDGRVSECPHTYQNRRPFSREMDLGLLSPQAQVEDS
Kind of assay: In vitro kinase activity (Millipore KinaseProfiler): Flt3. Format: biochemical. The following applies: no head or unit printed. How it is done:
as §1, §2

The target in the next assay is T6, GSK3α (Homo sapiens, UniProt P49840).
T6 construct: purchased Millipore (KinaseProfiler service)
Kind of assay: In vitro kinase activity (Millipore KinaseProfiler): GSK3α. Format: biochemical. The following applies: no head or unit printed. How it is done: as §1, §2

Another assay deals with T7, c-RAF (Homo sapiens, UniProt P04049).
T7 construct: purchased Millipore (KinaseProfiler service)
T7 sequence (P04049 whole entry, species assumed): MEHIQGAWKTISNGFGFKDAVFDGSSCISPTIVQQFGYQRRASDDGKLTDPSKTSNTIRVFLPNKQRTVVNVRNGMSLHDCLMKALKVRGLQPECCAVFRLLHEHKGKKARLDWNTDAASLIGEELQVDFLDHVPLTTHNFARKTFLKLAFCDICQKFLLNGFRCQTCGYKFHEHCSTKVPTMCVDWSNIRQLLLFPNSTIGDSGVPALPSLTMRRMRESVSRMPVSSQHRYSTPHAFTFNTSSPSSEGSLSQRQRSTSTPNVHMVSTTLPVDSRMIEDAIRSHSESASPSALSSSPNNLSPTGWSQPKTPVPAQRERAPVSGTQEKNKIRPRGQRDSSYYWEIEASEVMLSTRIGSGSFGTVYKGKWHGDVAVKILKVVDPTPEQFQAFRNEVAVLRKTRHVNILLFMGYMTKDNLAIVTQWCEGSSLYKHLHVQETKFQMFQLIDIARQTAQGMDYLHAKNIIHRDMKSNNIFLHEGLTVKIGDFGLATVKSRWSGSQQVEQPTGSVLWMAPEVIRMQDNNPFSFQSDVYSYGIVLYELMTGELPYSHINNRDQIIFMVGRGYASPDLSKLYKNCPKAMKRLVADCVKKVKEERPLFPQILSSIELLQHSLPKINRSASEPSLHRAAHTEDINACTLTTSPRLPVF
Kind of assay: In vitro kinase activity (Millipore KinaseProfiler): c-RAF. Conditions: no head or unit printed. The class given is biochemical. On the procedure:
as §1, §2

In another assay the target is T8, PKCδ (Homo sapiens, UniProt Q05655).
T8 construct: purchased Millipore (KinaseProfiler service)
T8 sequence (Q05655 whole entry): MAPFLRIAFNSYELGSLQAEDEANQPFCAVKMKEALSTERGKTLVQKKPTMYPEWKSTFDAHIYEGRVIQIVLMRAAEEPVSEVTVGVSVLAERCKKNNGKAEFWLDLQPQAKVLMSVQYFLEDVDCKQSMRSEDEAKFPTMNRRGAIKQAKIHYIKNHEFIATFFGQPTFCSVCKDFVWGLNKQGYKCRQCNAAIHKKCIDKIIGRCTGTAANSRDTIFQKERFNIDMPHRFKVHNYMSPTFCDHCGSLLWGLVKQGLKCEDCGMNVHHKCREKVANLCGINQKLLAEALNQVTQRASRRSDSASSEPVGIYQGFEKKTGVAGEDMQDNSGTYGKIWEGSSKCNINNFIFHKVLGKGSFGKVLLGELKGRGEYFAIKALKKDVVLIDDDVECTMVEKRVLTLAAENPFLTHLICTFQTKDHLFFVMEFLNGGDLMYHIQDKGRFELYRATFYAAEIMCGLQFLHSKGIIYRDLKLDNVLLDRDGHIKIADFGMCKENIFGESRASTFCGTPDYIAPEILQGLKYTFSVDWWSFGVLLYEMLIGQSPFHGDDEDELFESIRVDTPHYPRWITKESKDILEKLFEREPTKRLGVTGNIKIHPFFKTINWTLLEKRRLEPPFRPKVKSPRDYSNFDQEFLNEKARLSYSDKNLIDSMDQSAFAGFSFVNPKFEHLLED
The assay can be described thus: In vitro kinase activity (Millipore KinaseProfiler): PKCδ. Format: biochemical. The following applies: no head or unit printed. On the procedure: as §1, §2

In another assay the target is T9, NEK2 (Homo sapiens, UniProt P51955).
T9 construct: purchased Millipore (KinaseProfiler service)
The assay can be described thus: In vitro kinase activity (Millipore KinaseProfiler): NEK2. Format: biochemical. Conditions: no head or unit printed. How it is done: as §1, §2

Assay [1] relates to RCC4 cells transfected with siRNA to HIF-1β. The assay can be described thus: 3H-2-deoxyglucose uptake, RCC4 with siRNA to HIF-1β. The class given is cell-based, human. Conditions: 5 μM, FIG. 3E. How it is done: as §1
One hundred thousand cells were plated per well in a six-well plate. The next day, cells were treated with the indicated concentration of drug and incubated for the indicated time. […] Glucose uptake was quantified with a scintillation counter.
To further investigate the relationship between HIF and compound 47 toxicity, we silenced HIF-1β in RCC4 cells and assessed its affect on glucose uptake. […]

In a further assay the target is T10, EphA1 (Homo sapiens, UniProt P21709).
T10 construct: purchased Millipore (KinaseProfiler service)
T10 sequence (P21709 26-976, species assumed): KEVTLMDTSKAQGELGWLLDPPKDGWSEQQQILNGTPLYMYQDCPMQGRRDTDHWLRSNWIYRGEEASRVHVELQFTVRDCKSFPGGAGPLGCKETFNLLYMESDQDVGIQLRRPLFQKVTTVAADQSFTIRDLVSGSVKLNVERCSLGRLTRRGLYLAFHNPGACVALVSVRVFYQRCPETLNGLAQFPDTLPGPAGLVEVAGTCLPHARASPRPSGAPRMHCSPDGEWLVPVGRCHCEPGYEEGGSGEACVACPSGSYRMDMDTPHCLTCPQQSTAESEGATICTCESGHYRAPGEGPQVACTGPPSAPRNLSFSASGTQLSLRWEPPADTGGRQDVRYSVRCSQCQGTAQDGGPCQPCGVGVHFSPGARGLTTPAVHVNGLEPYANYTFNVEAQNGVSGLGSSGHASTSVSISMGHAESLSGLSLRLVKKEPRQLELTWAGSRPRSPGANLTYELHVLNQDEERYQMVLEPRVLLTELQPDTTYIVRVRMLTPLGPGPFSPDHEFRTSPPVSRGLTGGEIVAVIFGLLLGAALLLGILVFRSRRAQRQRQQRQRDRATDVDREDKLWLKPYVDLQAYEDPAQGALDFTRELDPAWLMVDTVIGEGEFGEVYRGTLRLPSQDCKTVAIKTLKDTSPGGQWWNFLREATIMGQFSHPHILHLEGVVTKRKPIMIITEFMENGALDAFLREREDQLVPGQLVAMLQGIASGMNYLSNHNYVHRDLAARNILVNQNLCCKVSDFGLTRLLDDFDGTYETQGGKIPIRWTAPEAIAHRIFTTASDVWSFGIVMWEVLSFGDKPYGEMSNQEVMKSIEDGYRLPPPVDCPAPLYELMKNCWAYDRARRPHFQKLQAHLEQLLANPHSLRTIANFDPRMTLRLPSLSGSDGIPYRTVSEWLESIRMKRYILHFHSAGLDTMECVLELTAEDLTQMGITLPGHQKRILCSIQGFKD
Kind of assay: In vitro kinase activity (Millipore KinaseProfiler): EphA1. Format: biochemical. Conditions: no head or unit printed. How it is done: as §1, §2

A further assay deals with T11, cKit(D816H) (Homo sapiens, UniProt P10721, D816H).
T11 construct: purchased Millipore (KinaseProfiler service)
T11 sequence (P10721 26-976 D816H): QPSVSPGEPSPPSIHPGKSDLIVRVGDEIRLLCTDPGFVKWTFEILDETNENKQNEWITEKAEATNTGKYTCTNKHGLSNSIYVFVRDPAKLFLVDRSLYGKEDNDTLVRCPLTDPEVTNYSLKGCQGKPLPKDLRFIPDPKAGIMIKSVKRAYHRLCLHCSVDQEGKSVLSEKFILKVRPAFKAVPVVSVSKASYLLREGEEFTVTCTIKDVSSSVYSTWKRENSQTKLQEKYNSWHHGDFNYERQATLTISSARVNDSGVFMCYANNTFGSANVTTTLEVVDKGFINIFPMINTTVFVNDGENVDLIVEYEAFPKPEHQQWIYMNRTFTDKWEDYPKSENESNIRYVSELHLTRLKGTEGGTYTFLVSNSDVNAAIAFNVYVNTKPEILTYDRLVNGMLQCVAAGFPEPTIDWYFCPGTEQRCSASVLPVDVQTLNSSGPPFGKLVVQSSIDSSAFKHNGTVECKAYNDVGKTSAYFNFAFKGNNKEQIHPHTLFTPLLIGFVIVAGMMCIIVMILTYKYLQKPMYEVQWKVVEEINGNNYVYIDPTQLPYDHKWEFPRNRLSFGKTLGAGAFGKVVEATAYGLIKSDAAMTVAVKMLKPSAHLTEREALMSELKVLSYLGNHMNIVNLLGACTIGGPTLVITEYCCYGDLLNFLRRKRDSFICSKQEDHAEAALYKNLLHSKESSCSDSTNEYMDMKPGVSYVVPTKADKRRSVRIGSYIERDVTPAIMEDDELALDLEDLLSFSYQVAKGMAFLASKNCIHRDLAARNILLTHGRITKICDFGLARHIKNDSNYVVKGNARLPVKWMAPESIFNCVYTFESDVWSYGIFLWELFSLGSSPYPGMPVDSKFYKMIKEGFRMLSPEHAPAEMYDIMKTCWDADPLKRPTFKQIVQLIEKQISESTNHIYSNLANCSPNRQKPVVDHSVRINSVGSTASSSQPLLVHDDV
Kind of assay: In vitro kinase activity (Millipore KinaseProfiler): cKit(D816H). Conditions: no head or unit printed. Format: biochemical. On the procedure:
as §1, §2

The results in this text go back to patent US20120225862A1, “HETEROARYL BENZAMIDES, COMPOSITIONS AND METHODS OF USE” (AUCKLAND UNIVSERVICES LIMITED, priority 2009, published 2012).

T3 sequence (O75582 whole entry, species assumed): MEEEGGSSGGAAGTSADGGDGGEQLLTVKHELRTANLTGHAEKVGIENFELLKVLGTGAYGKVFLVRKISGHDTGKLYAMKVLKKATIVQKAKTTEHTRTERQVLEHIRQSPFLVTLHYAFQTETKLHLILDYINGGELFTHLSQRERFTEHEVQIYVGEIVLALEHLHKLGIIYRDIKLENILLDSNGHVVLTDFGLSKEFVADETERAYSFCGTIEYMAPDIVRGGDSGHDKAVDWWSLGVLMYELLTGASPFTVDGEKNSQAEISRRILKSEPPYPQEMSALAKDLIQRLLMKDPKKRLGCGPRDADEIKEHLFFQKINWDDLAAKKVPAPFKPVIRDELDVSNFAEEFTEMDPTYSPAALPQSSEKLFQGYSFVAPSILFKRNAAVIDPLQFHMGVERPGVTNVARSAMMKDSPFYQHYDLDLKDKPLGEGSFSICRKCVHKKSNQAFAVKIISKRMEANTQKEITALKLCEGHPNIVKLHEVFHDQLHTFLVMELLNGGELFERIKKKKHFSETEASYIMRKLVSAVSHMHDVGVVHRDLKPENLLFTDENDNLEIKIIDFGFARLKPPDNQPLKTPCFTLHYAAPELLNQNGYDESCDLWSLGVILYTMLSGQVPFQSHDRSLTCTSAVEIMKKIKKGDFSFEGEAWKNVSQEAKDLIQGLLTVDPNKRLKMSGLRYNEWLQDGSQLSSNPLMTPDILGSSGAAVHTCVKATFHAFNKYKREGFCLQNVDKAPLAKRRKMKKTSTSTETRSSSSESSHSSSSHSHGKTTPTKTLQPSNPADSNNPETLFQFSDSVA

For the compound `CC(C)(C)c1ccc(S(=O)(=O)NCc2ccc(C(=O)Nc3cccnc3)cc2)cc1` [Example 38, 4-((4-tert-Butylphenylsulfonamido)methyl)-N-(pyridin-3-yl)benzamide], the Tie2 kinase activity at Tie2 is 111%. At IR, the IR kinase activity is 121%. At MSK1, this compound returned an MSK1 kinase activity of 107. The MLK1 kinase activity at MLK1 was 97%. Besides, the “total p53 or phospho-p53 levels (DNA damage response)” value in the assay on p53 is given as “did not increase”. For the same compound, the “nuclear condensation (apoptosis)” value with RCC4 and RCC4/VHL cells (DAPI, RCC4 and RCC4/VHL, FIG. 7C) is listed as “no nuclear condensation”. For the same compound, in the assay with RCC4 and RCC4/VHL cells (RCC4, 5 μM, FACS, FIG. 7D), the “propidium iodide or annexin V staining (apoptosis)” value is recorded as “nor an increase in either propidium iodide or annexin V staining”. The Flt3 kinase activity at Flt3 was determined as 111%. The GSK3α kinase activity on GSK3α is 134. At c-RAF, this compound registered a c-RAF kinase activity of 103. For the same compound, the PKCδ kinase activity on PKCδ was determined as 116. Further, the NEK2 kinase activity at NEK2 was 103. The “glucose uptake in RCC4 with HIF-1β silenced” value in assay [1] was “insensitive”. In addition, the EphA1 kinase activity on EphA1 worked out at 102. The “cKit(D816H) kinase activity” value at cKit(D816H) worked out at 99.
